Here are results for 2 compounds from patent US20020082213A1 (priority 1996, published 2002).

Assay [1] deals with female albino mice (Ibm: MORO). The assay is described as follows: Operant conflict test for anxiolytic effect. The following applies: 10 mg/kg oral, 30 minutes prior to testing. The format is in vivo.
Assay [2] has as its system LC132 receptors. The following applies: cited from earlier work.

Consider `CN1C(=O)CN=C(c2ccccc2)c2cc(Cl)ccc21` [diazepam], for which, in assay [1], the punished lever-pressing entry is listed as “enhanced punished lever-pressing” and the unpunished responding result was “some reduction of unpunished responding”. As for dynorphin A, the “inhibition of cyclic AMP formation” value in assay [2] is on record as “weakly inhibited”.
